Experimental data: US9150575B2, “Piperidinylpyrazolopyridine derivative” (Daiichi Sankyo Company, Limited, priority 2012, dated 2015)

target: T1, LCAT (Homo sapiens, UniProt P04180); assay: LCAT Activity Measurement (In Vitro); format: biochemical; settings: EC50 of LCAT activation; HDL3 fraction from plasma of a healthy person as enzyme source and acceptor; [14C]cholesterol; 37° C., approximately 16 hours
T1 construct: The obtained fraction was dialyzed against phosphate-buffered saline (pH 7.4) and used as an enzyme source and an acceptor for LCAT; from tissue; host or cells: HDL3 fraction (1.125<specific gravity<1.210 g/mL) of plasma from a healthy person
T1 sequence (P04180 25-440): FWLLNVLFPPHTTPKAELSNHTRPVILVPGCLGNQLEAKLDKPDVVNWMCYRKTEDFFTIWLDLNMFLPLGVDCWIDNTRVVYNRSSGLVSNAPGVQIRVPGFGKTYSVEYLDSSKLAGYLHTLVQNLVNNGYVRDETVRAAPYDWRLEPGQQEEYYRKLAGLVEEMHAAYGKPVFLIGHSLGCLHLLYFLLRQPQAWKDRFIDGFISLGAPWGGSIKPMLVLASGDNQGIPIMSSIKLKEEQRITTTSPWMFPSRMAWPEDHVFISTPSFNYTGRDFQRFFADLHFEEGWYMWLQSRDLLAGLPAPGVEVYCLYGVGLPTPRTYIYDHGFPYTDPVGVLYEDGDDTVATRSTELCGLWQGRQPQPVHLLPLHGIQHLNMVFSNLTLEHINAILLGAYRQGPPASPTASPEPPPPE
In short: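 Human plasma HDL3 (1 mg/mL, PBS pH 7.4) served as enzyme and acceptor with [14C]cholesterol, 0.5 mM DTNB, 12.5 mM mercaptoethanol and 0.6% BSA; compounds in DMSO, incubated ~16 h at 37 °C. Cholesterol oleate radioactivity quantified after extraction and TLC; EC50 of activation fitted relative to no-drug control.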

Row | EC50 [nM] | SMILES
1 | 420 | CN(C)C(=O)c1nc(N2CCC(c3n[nH]c4c3C(O)(C(F)(F)F)CC(=O)N4)CC2)ccc1C(F)(F)F (centres unmarked) [Example 83, 6-{4-[4-Hydroxy-6-oxo-4-(trifluoromethyl)-4,5,6,7-tetrahydro-1H-pyrazolo[3,4-b]pyridin-3-yl]piperidin-1-yl}-N,N-dimethyl-3-(trifluoromethyl)pyridine-2-carboxamide]
2 | 27 | O=C1CC(O)(C(F)(F)F)c2c(C3CCN(c4ccc(-c5ccccc5)nn4)CC3)n[nH]c2N1 (centres unmarked) [Example 105, 4-Hydroxy-3-[1-(6-phenylpyridazin-3-yl)piperidin-4-yl]-4-(trifluoromethyl)-1,4,5,7-tetrahydro-6H-pyrazolo[3,4-b]pyridin-6-one]
3 | 13 | O=C1CC(O)(C(F)(F)F)c2c(C3CCN(c4cc(C(=O)OCc5ccccc5)c(C(F)(F)F)cn4)CC3)n[nH]c2N1 (centres unmarked) [Example 85, Benzyl 2-[4-(4-hydroxy-6-oxo-4-(trifluoromethyl)-4,5,6,7-tetrahydro-1H-pyrazolo[3,4-b]pyridin-3-yl)piperidin-1-yl]-5-(trifluoromethyl)pyridine-4-carboxylate]
4 | 220 | CC(C)c1cc(N2CCC(c3n[nH]c4c3C(O)(C(F)(F)F)CC(=O)N4)CC2)nc(C(C)C)n1 (centres unmarked) [Example 75, 3-{1-[2,6-di(Propan-2-yl)pyrimidin-4-yl]piperidin-4-yl}-4-hydroxy-4-(trifluoromethyl)-1,4,5,7-tetrahydro-6H-pyrazolo[3,4-b]pyridin-6-one]
5 | 140 | CN(C)c1cc(N2CCC(c3n[nH]c4c3C(O)(C(F)(F)F)CC(=O)N4)CC2)nc(C(F)(F)F)n1 (centres unmarked) [Example 86, 3-{1-[6-(Dimethylamino)-2-(trifluoromethyl)pyrimidin-4-yl]piperidin-4-yl}-4-hydroxy-4-(trifluoromethyl)-1,4,5,7-tetrahydro-6H-pyrazolo[3,4-b]pyridin-6-one]
6 | 37 | N#Cc1cnc(N2CCC(c3n[nH]c4c3C(O)(C(F)(F)F)CC(=O)N4)CC2)cc1C(F)(F)F (centres unmarked) [Example 95, 6-{4-[4-Hydroxy-6-oxo-4-(trifluoromethyl)-4,5,6,7-tetrahydro-1H-pyrazolo[3,4-b]pyridin-3-yl]piperidin-1-yl}-4-(trifluoromethyl)pyridine-3-carbonitrile]
7 | 75 | O=C1CC(O)(C(F)(F)F)c2c(C3CCN(c4ccc(C5CC5)cn4)CC3)n[nH]c2N1 (centres unmarked) [Example 99, 3-[1-(5-Cyclopropylpyridin-2-yl)piperidin-4-yl]-4-hydroxy-4-(trifluoromethyl)-1,4,5,7-tetrahydro-6H-pyrazolo[3,4-b]pyridin-6-one]
8 | 310 | O=C1CC(O)(C(F)(F)F)c2c(C3CCN(c4nc(-c5ccccc5)cs4)CC3)n[nH]c2N1 (centres unmarked) [Example 90, 4-Hydroxy-3-[1-(4-phenyl-1,3-thiazol-2-yl)piperidin-4-yl]-4-(trifluoromethyl)-1,4,5,7-tetrahydro-6H-pyrazolo[3,4-b]pyridin-6-one]

Second part, the molecule before the results:

Row | SMILES | EC50 [nM]
9 | N#Cc1cc(N2CCC(c3n[nH]c4c3C(O)(C(F)(F)F)CC(=O)N4)CC2)ccc1OC(F)F (centres unmarked) [Example 60, 2-(Difluoromethoxy)-5-{4-[4-hydroxy-6-oxo-4-(trifluoromethyl)-4,5,6,7-tetrahydro-1H-pyrazolo[3,4-b]pyridin-3-yl]piperidin-1-yl}benzonitrile] | 21
10 | O=C1CC(O)(C(F)(F)F)c2c(C3CCN(c4ncccc4C(F)(F)F)CC3)n[nH]c2N1 (centres unmarked) [Example 9, 4-Hydroxy-4-(trifluoromethyl)-3-{1-[3-(trifluoromethyl)pyridin-2-yl]piperidin-4-yl}-1,4,5,7-tetrahydro-6H-pyrazolo[3,4-b]pyridin-6-one] | 1150
11 | CC(C)c1ccc(N2CCC(c3n[nH]c4c3C(O)(C(F)(F)F)CC(=O)N4)CC2)nc1 (centres unmarked) [Example 64, 4-Hydroxy-3-{1-[5-isopropylpyridin-2-yl]piperidin-4-yl]-4-(trifluoromethyl)-1,4,5,7-tetrahydro-6H-pyrazolo[3,4-b]pyridin-6-one] | 56
12 | CN(C)c1ncc(N2CCC(c3n[nH]c4c3C(O)(C(F)(F)F)CC(=O)N4)CC2)cn1 (centres unmarked) [Example 67, 3-{1-[2-(Dimethylamino)pyrimidin-5-yl]piperidin-4-yl}-4-hydroxy-4-(trifluoromethyl)-1,4,5,7-tetrahydro-6H-pyrazolo[3,4-b]pyridin-6-one] | 330
13 | COc1cccc(N2CCC(c3n[nH]c4c3C(O)(C(F)(F)F)CC(=O)N4)CC2)n1 (centres unmarked) [Example 12, 4-Hydroxy-3-[1-(6-methoxypyridin-2-yl)piperidin-4-yl]-4-(trifluoromethyl)-1,4,5,7-tetrahydro-6H-pyrazolo[3,4-b]pyridin-6-one] | 54
14 | O=C1CC(O)(C(F)(F)F)c2c(C3CCN(c4ccc(F)cn4)CC3)n[nH]c2N1 (centres unmarked) [Example 15, 3-[1-(5-Fluoropyridin-2-yl)piperidin-4-yl]-4-hydroxy-4-(trifluoromethyl)-1,4,5,7-tetrahydro-6H-pyrazolo[3,4-b]pyridin-6-one] | 250
15 | O=C1CC(O)(C(F)(F)F)c2c(C3CCN(c4ccc(C(F)(F)F)cn4)CC3)n[nH]c2N1 (single isomer, unassigned; (+)) [Compound 49-2, (+)-4-hydroxy-4-(trifluoromethyl)-3-{1-[5-(trifluoromethyl)pyridin-2-yl]piperidin-4-yl}-1,4,5,7-tetrahydro-6H-pyrazolo[3,4-b]pyridin-6-one] | 3770
16 | O=C1CC(O)(C(F)(F)F)c2c(C3CCN(c4cccnc4)CC3)n[nH]c2N1 (centres unmarked) [Example 27, 4-Hydroxy-3-[1-(pyridin-3-yl)piperidin-4-yl]-4-(trifluoromethyl)-1,4,5,7-tetrahydro-6H-pyrazolo[3,4-b]pyridin-6-one] | 2410
17 | O=C1CC(O)(C(F)(F)F)c2c(C3CCN(c4ccc5ccccc5n4)CC3)n[nH]c2N1 (centres unmarked) [Example 16, 4-Hydroxy-3-[1-(quinolin-2-yl)piperidin-4-yl]-4-(trifluoromethyl)-1,4,5,7-tetrahydro-6H-pyrazolo[3,4-b]pyridin-6-one] | 96
18 | Cc1cc(N2CCC(c3n[nH]c4c3C(O)(C(F)(F)F)CC(=O)N4)CC2)ncc1C#N (centres unmarked) [Example 42, 6-{4-[4-Hydroxy-6-oxo-4-(trifluoromethyl)-4,5,6,7-tetrahydro-1H-pyrazolo[3,4-b]pyridin-3-yl]piperidin-1-yl}-4-methylpyridine-3-carbonitrile] | 140
19 | Cc1ccnc(N2CCC(c3n[nH]c4c3C(O)(C(F)(F)F)CC(=O)N4)CC2)c1 (centres unmarked) [Example 5, 4-Hydroxy-3-[1-(4-methylpyridin-2-yl)piperidin-4-yl]-4-(trifluoromethyl)-1,4,5,7-tetrahydro-6H-pyrazolo[3,4-b]pyridin-6-one] | 290
20 | N#Cc1cncc(N2CCC(c3n[nH]c4c3C(O)(C(F)(F)F)CC(=O)N4)CC2)c1 (centres unmarked) [Example 37, 5-{4-[4-Hydroxy-6-oxo-4-(trifluoromethyl)-4,5,6,7-tetrahydro-1H-pyrazolo[3,4-b]pyridin-3-yl]piperidin-1-yl}pyridine-3-carbonitrile] | 71
21 | O=C1CC(O)(C(F)(F)F)c2c(C3CCN(c4nc(C(F)(F)F)c(-c5nc(C(F)(F)F)cs5)s4)CC3)n[nH]c2N1 (centres unmarked) [Compound 48-b, 3-{1-[4,4′-bis(trifluoromethyl)-2,5′-bi-1,3-thiazol-2′-yl]piperidin-4-yl}-4-hydroxy-4-(trifluoromethyl)-1,4,5,7-tetrahydro-6H-pyrazolo[3,4-b]pyridin-6-one] | 46
22 | COc1cncc(N2CCC(c3n[nH]c4c3C(O)(C(F)(F)F)CC(=O)N4)CC2)c1 (centres unmarked) [Example 40, 4-Hydroxy-3-[1-(5-methoxypyridin-3-yl)piperidin-4-yl]-4-(trifluoromethyl)-1,4,5,7-tetrahydro-6H-pyrazolo[3,4-b]pyridin-6-one] | 1710
23 | O=C1CC(O)(C(F)(F)F)c2c(C3CCN(c4ccc(C(F)(F)F)nc4)CC3)n[nH]c2N1 (centres unmarked) [Example 41, 4-Hydroxy-4-(trifluoromethyl)-3-{1-[6-(trifluoromethyl)pyridin-3-yl]piperidin-4-yl}-1,4,5,7-tetrahydro-6H-pyrazolo[3,4-b]pyridin-6-one] | 26
24 | Cc1nc(N2CCC(c3n[nH]c4c3C(O)(C(F)(F)F)CC(=O)N4)CC2)ccc1C#N (centres unmarked) [Example 20, 6-{4-[4-Hydroxy-6-oxo-4-(trifluoromethyl)-4,5,6,7-tetrahydro-1H-pyrazolo[3,4-b]pyridin-3-yl]piperidin-1-yl}-2-methylpyridine-3-carbonitrile] | 290
25 | O=C1CC(O)(C(F)(F)F)c2c(C3CCN(c4nc(C(F)(F)F)cs4)CC3)n[nH]c2N1 (centres unmarked) [Compound 48-a, 4-Hydroxy-4-(trifluoromethyl)-3-{1-[4-(trifluoromethyl)-1,3-thiazol-2-yl]piperidin-4-yl}-1,4,5,7-tetrahydro-6H-pyrazolo[3,4-b]pyridin-6-one] | 80
26 | COc1ccnc(N2CCC(c3n[nH]c4c3C(O)(C(F)(F)F)CC(=O)N4)CC2)c1 (centres unmarked) [Example 39, 4-Hydroxy-3-[1-(4-methoxypyridin-2-yl)piperidin-4-yl]-4-(trifluoromethyl)-1,4,5,7-tetrahydro-6H-pyrazolo[3,4-b]pyridin-6-one] | 330
